{"source": "patent US20260109721A1", "about": "“IONIZABLE CATIONIC LIPIDS INCORPORATING SILICON: SYNTHESIS AND LNP FORMULATION” (priority 2023, published 2026)", "key": {"[1]": {"assay": "LNP size, PDI and zeta potential by Dynamic Light Scattering (Method A)", "type": "physicochemical", "conditions": "LNP formulated with the lipid, DLS", "in_short": "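Dynamic light scattering gave size, polydispersity and zeta potential of Method A nanoparticles. These were made from Luc mRNA in 10 mM citrate pH 4.0 combined with ethanol lipid master mix plus ionizable lipid on a dean-type chip (3:1, TFR around 12 ml/min).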"}, "[2]": {"tested_on": "HepG2 cell line", "assay": "In vitro toxicity study on HepG2 cell line (resazurin, viability and IC50)", "type": "cell-based, human", "conditions": "resazurin; for Viability (%) at different lipid concentrations, mean: HepG2 cells, 48 h post-treatment, relative to ethanol vehicle controls; for IC50: Homo sapiens, lipid toxicity, HepG2, 48 h post-treatment, 6.25-800 μM, read-out: IC50 value, μM (on HepG2 cell)", "in_short": "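Resazurin read-out (ex 530/em 580 nm, 5 h at 37 °C) measured lipid toxicity 48 h after dosing HepG2 cells (1000/well) at 6.25–800 μM. Viability was normalised to ethanol vehicle, and IC50 was derived from concentration-response curves.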"}}, "data": [{"smiles": "CCCCCCCC/C=C\\CCCCCCCCOC(=O)C(C)(C)CC(OCCCCCCCC/C=C\\CCCCCCCC)O[Si](C)(C)OCCCCCCN(CCCO)CCCO", "note": "(stereo not drawn) [Example 88, (Z)-octadec-9-en-1-yl 1-hydroxy-4-(3-hydroxypropyl)-12,12,16,16-tetramethyl-14-(((Z)-octadec-9-en-1-yl)oxy)-11,13-dioxa-4-aza-12-silaheptadecan-17-oate]", "values": [{"measurement": "PDI", "setting": "[1]", "value": 0.21}, {"measurement": "Size (nm)", "setting": "[1]", "value": 86.51, "unit": "nm"}, {"measurement": "Zeta potential (mV)", "setting": "[1]", "value": "−7.76", "unit": "mV"}, {"measurement": "Viability (%) at different lipid concentrations, mean", "setting": "[2]; 6.25 μM lipid", "value": 109.1, "unit": "%"}, {"measurement": "Viability (%) at different lipid concentrations, mean", "setting": "[2]; 12.5 μM lipid", "value": 112.0, "unit": "%"}, {"measurement": "Viability (%) at different lipid concentrations, mean", "setting": "[2]; 25 μM lipid", "value": 109.5, "unit": "%"}, {"measurement": "Viability (%) at different lipid concentrations, mean", "setting": "[2]; 50 μM lipid", "value": 99.6, "unit": "%"}, {"measurement": "Viability (%) at different lipid concentrations, mean", "setting": "[2]; 100 μM lipid", "value": 77.4, "unit": "%"}, {"measurement": "Viability (%) at different lipid concentrations, mean", "setting": "[2]; 200 μM lipid", "value": 57.3, "unit": "%"}, {"measurement": "Viability (%) at different lipid concentrations, mean", "setting": "[2]; 400 μM lipid", "value": 36.6, "unit": "%"}, {"measurement": "Viability (%) at different lipid concentrations, mean", "setting": "[2]; 800 μM lipid", "value": 21.0, "unit": "%"}, {"measurement": "IC50", "setting": "[2]", "value": 272, "unit": "µM"}]}, {"smiles": "CCCCCCCC/C=C\\CCCCCCCCOC(=O)C(C)(C)CC(OCCCCCCCC/C=C\\CCCCCCCC)O[Si](C)(C)OCCCCCCN1CCCCC1CO", "note": "(stereo not drawn) [Example 89, (Z)-octadec-9-en-1-yl 4-((((6-(2-(hydroxymethyl)piperidin-1-yl)hexyl)oxy)dimethylsilyl)oxy)-2,2-dimethyl-4-(((Z)-octadec-9-en-1-yl)oxy)butanoate]", "values": [{"measurement": "PDI", "setting": "[1]", "value": 0.12}, {"measurement": "Size (nm)", "setting": "[1]", "value": 97.17, "unit": "nm"}, {"measurement": "Zeta potential (mV)", "setting": "[1]", "value": "−10.93", "unit": "mV"}, {"measurement": "Viability (%) at different lipid concentrations, mean", "setting": "[2]; 6.25 μM lipid", "value": 101.4, "unit": "%"}, {"measurement": "Viability (%) at different lipid concentrations, mean", "setting": "[2]; 12.5 μM lipid", "value": 97.9, "unit": "%"}, {"measurement": "Viability (%) at different lipid concentrations, mean", "setting": "[2]; 25 μM lipid", "value": 97.9, "unit": "%"}, {"measurement": "Viability (%) at different lipid concentrations, mean", "setting": "[2]; 50 μM lipid", "value": 102.8, "unit": "%"}, {"measurement": "Viability (%) at different lipid concentrations, mean", "setting": "[2]; 100 μM lipid", "value": 108.3, "unit": "%"}, {"measurement": "Viability (%) at different lipid concentrations, mean", "setting": "[2]; 200 μM lipid", "value": 106.6, "unit": "%"}, {"measurement": "Viability (%) at different lipid concentrations, mean", "setting": "[2]; 400 μM lipid", "value": 99.5, "unit": "%"}, {"measurement": "Viability (%) at different lipid concentrations, mean", "setting": "[2]; 800 μM lipid", "value": 91.6, "unit": "%"}, {"measurement": "IC50", "setting": "[2]", "value": "> 800", "unit": "µM"}]}, {"smiles": "CCCCCCCC/C=C\\CCCCCCCCOC(=O)C(C)(C)CC(OCCCCCCCC/C=C\\CCCCCCCC)O[Si](C)(C)OCCCCCCN1CCCC1CO", "note": "(stereo not drawn) [Example 90, (Z)-octadec-9-en-1-yl 4-((((6-(2-(hydroxymethyl)pyrrolidin-1-yl)hexyl)oxy)dimethylsilyl)oxy)-2,2-dimethyl-4-(((Z)-octadec-9-en-1-yl)oxy)butanoate]", "values": [{"measurement": "PDI", "setting": "[1]", "value": 0.14}, {"measurement": "Size (nm)", "setting": "[1]", "value": 100.2, "unit": "nm"}, {"measurement": "Zeta potential (mV)", "setting": "[1]", "value": "−16.19", "unit": "mV"}, {"measurement": "Viability (%) at different lipid concentrations, mean", "setting": "[2]; 6.25 μM lipid", "value": 101.5, "unit": "%"}, {"measurement": "Viability (%) at different lipid concentrations, mean", "setting": "[2]; 12.5 μM lipid", "value": 96.4, "unit": "%"}, {"measurement": "Viability (%) at different lipid concentrations, mean", "setting": "[2]; 25 μM lipid", "value": 96.6, "unit": "%"}, {"measurement": "Viability (%) at different lipid concentrations, mean", "setting": "[2]; 50 μM lipid", "value": 100.5, "unit": "%"}, {"measurement": "Viability (%) at different lipid concentrations, mean", "setting": "[2]; 100 μM lipid", "value": 105.8, "unit": "%"}, {"measurement": "Viability (%) at different lipid concentrations, mean", "setting": "[2]; 200 μM lipid", "value": 104.9, "unit": "%"}, {"measurement": "Viability (%) at different lipid concentrations, mean", "setting": "[2]; 400 μM lipid", "value": 93.1, "unit": "%"}, {"measurement": "Viability (%) at different lipid concentrations, mean", "setting": "[2]; 800 μM lipid", "value": 84.0, "unit": "%"}, {"measurement": "IC50", "setting": "[2]", "value": "> 800", "unit": "µM"}]}, {"smiles": "CCCCCCCC/C=C\\CCCCCCCCOC(=O)C(C)(C)CC(OCCCCCCCC/C=C\\CCCCCCCC)O[Si](C)(C)OCCCCCCN(C)CCCCO", "note": "(stereo not drawn) [Example 91, (Z)-octadec-9-en-1-yl 18-hydroxy-2,2,6,6,14-pentamethyl-4-(((Z)-octadec-9-en-1-yl)oxy)-5,7-dioxa-14-aza-6-silaoctadecanoate]", "values": [{"measurement": "PDI", "setting": "[1]", "value": 0.17}, {"measurement": "Size (nm)", "setting": "[1]", "value": 85.49, "unit": "nm"}, {"measurement": "Zeta potential (mV)", "setting": "[1]", "value": "−15.27", "unit": "mV"}, {"measurement": "Viability (%) at different lipid concentrations, mean", "setting": "[2]; 6.25 μM lipid", "value": 100.2, "unit": "%"}, {"measurement": "Viability (%) at different lipid concentrations, mean", "setting": "[2]; 12.5 μM lipid", "value": 98.8, "unit": "%"}, {"measurement": "Viability (%) at different lipid concentrations, mean", "setting": "[2]; 25 μM lipid", "value": 108.4, "unit": "%"}, {"measurement": "Viability (%) at different lipid concentrations, mean", "setting": "[2]; 50 μM lipid", "value": 112.4, "unit": "%"}, {"measurement": "Viability (%) at different lipid concentrations, mean", "setting": "[2]; 100 μM lipid", "value": 103.1, "unit": "%"}, {"measurement": "Viability (%) at different lipid concentrations, mean", "setting": "[2]; 200 μM lipid", "value": 88.0, "unit": "%"}, {"measurement": "Viability (%) at different lipid concentrations, mean", "setting": "[2]; 400 μM lipid", "value": 61.2, "unit": "%"}, {"measurement": "Viability (%) at different lipid concentrations, mean", "setting": "[2]; 800 μM lipid", "value": 44.1, "unit": "%"}, {"measurement": "IC50", "setting": "[2]", "value": 625, "unit": "µM"}]}]}
